Experimental data: patent US6737383B1, “Herbicidal oxadiazolidines” (priority 1999, dated 2004)

Key:
rape = assay: Test B pre/postemergence rape; format: in vivo, Brassica napus
In short: (§1)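 Response is a visual 0-to-10 score relative to untreated plants, where 0 means no effect and 10 means complete control, taken twelve to sixteen days after application. Treatments went onto soil at planting and onto foliage of 1- to 4-leaf plants, using a surfactant-containing non-phytotoxic solvent.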

wheat = assay: Test B pre/postemergence wheat; format: in vivo, Triticum aestivum
In short: as §1

surinam grass = assay: Test B pre/postemergence surinam grass; format: in vivo, Brachiaria decumbens
In short: as §1

cocklebur = assay: Test B pre/postemergence cocklebur; format: in vivo, Xanthium strumarium
In short: as §1

morningglory = assay: Test B pre/postemergence morningglory; format: in vivo, Ipomoea hederacea
In short: as §1

corn = assay: Test B pre/postemergence corn; format: in vivo, Zea mays
In short: as §1

rice = assay: Test B flood test rice; format: in vivo, Oryza sativa
In short: (§2)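 Plants were grown to the 2-leaf stage before treatment with test chemical, then held in a greenhouse for twelve to sixteen days. Injury was visually rated against untreated controls on a 0–10 scale, where 0 is no effect and 10 is complete control.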

blackgrass = assay: Test B pre/postemergence blackgrass; format: in vivo, Alopecurus myosuroides
In short: as §1

velvetleaf = assay: Test B pre/postemergence velvetleaf; format: in vivo, Abutilon theophrasti
In short: as §1

soybean = assay: Test B pre/postemergence soybean; format: in vivo, Glycine max
In short: as §1

smallflower flatsedge = assay: Test B flood test smallflower flatsedge; format: in vivo, Cyperus difformis
In short: as §2

pigweed = assay: Test B pre/postemergence pigweed; format: in vivo, Amaranthus retroflexus
In short: as §1

giant foxtail = assay: Test B pre/postemergence giant foxtail; format: in vivo, Setaria faberii
In short: as §1

wild oat = assay: Test B pre/postemergence wild oat; format: in vivo, Avena fatua
In short: as §1

sugar beet = assay: Test B pre/postemergence sugar beet; format: in vivo, Beta vulgaris
In short: as §1

[1] = Postemergence, Rate 250 g/ha, scale 0 to 10
[2] = Postemergence, Rate 500 g/ha, scale of 0 to 10 where 0 is no effect and 10 is complete control
[3] = Preemergence, Rate 62 g/ha, scale of 0 to 10 where 0 is no effect and 10 is complete control
[4] = Preemergence, Rate 125 g/ha, scale of 0 to 10 where 0 is no effect and 10 is complete control
[5] = Preemergence, Rate 250 g/ha, scale 0 to 10, 0 is no effect, 10 is complete control
[6] = Preemergence, Rate 500 g/ha, scale 0 to 10, 0 is no effect, 10 is complete control
[7] = Rate 62 g/ha, Postemergence, scale 0 to 10, 0 no effect, 10 complete control
[8] = Rate 125 g/ha, Postemergence, scale 0 to 10, 0 is no effect, 10 is complete control
[9] = Rate 62 g/ha, flood test species, Pre-emergence, visual evaluation after twelve to sixteen days
[10] = Rate 125 g/ha, under heading Pre-emergence, flood test species, visual evaluation after twelve to sixteen days
[11] = Rate 250 g/ha, Pre-emergence (flood test species), scale 0 to 10, 0 is no effect, 10 is complete control
[12] = Rate 500 g/ha, Pre-emergence, flood test species, scale 0 to 10 (0 no effect, 10 complete control)

COC(C)n1c(=O)on(C(=O)N(c2ccc(F)cc2)C(C)C)c1=O (stereo not shown) [Compound 439]
0: Rape plant response rating (rape; [1]) | Rape plant response rating (rape; [2]) | Plant response rating, Rape (rape; [3]) | Plant response rating, Rape (rape; [4]) | Rape plant response rating (rape; [5]) | Rape plant response rating (rape; [6]) | Rape plant response rating (rape; [7]) | Rape plant response rating (rape; [8]) | Wheat plant response rating (wheat; [1]) | Wheat plant response rating (wheat; [2]) | Plant response rating, Wheat (wheat; [3]) | Plant response rating, Wheat (wheat; [4]) | Wheat plant response rating (wheat; [5]) | Wheat plant response rating (wheat; [6]) | Wheat plant response rating (wheat; [7]) | Wheat plant response rating (wheat; [8]) | B. signalgrass plant response rating (surinam grass; Postemergence, Rate 250 g/ha, scale 0 to 10, 0 no effect, 10 complete control) | B. signalgrass plant response rating (surinam grass; [2]) | Plant response rating, B. signalgrass (surinam grass; [3]) | Plant response rating, B. signalgrass (surinam grass; [4]) | B. signalgrass plant response rating (surinam grass; [5]) | B. signalgrass plant response rating (surinam grass; [6]) | B. signalgrass plant response rating (surinam grass; [7]) | B. signalgrass plant response rating (surinam grass; [8]) | Cocklebur plant response rating (cocklebur; [1]) | Cocklebur plant response rating (cocklebur; [2]) | Plant response rating, Cocklebur (cocklebur; [3]) | Plant response rating, Cocklebur (cocklebur; [4]) | Cocklebur plant response rating (cocklebur; [5]) | Cocklebur plant response rating (cocklebur; [6]) | Cocklebur plant response rating (cocklebur; [7]) | Cocklebur plant response rating (cocklebur; [8]) | Morningglory plant response rating (morningglory; [1]) | Morningglory plant response rating (morningglory; [2]) | Plant response rating, Morningglory (morningglory; [3]) | Plant response rating, Morningglory (morningglory; [4]) | Morningglory plant response rating (morningglory; [5]) | Morningglory plant response rating (morningglory; [6]) | Morningglory plant response rating (morningglory; [7]) | Morningglory plant response rating (morningglory; [8]) | Corn plant response rating (corn; [1]) | Corn plant response rating (corn; [2]) | Plant response rating, Corn (corn; [3]) | Plant response rating, Corn (corn; [4]) | Corn plant response rating (corn; [5]) | Corn plant response rating (corn; [6]) | Corn plant response rating (corn; [7]) | Corn plant response rating (corn; [8]) | Plant response rating, Rice (0 to 10 scale, 0 is no effect, 10 is complete control) (rice; [9]) | Rice plant response rating (0 to 10 scale, 0 is no effect, 10 is complete control) (rice; [10]) | Rice plant response rating (rice; [11]) | Rice plant response rating (rice; [12]) | Blackgrass plant response rating (blackgrass; [1]) | Blackgrass plant response rating (blackgrass; [2]) | Plant response rating, Blackgrass (blackgrass; [3]) | Plant response rating, Blackgrass (blackgrass; [4]) | Blackgrass plant response rating (blackgrass; [5]) | Blackgrass plant response rating (blackgrass; [6]) | Blackgrass plant response rating (blackgrass; [7]) | Blackgrass plant response rating (blackgrass; [8]) | Velvetleaf plant response rating (velvetleaf; [1]) | Velvetleaf plant response rating (velvetleaf; [2]) | Plant response rating, Velvetleaf (velvetleaf; [3]) | Plant response rating, Velvetleaf (velvetleaf; [4]) | Velvetleaf plant response rating (velvetleaf; [5]) | Velvetleaf plant response rating (velvetleaf; [6]) | Velvetleaf plant response rating (velvetleaf; [7]) | Velvetleaf plant response rating (velvetleaf; [8]) | Soybean plant response rating (soybean; [1]) | Soybean plant response rating (soybean; [2]) | Plant response rating, Soybean (soybean; [3]) | Plant response rating, Soybean (soybean; [4]) | Soybean plant response rating (soybean; [5]) | Soybean plant response rating (soybean; [6]) | Soybean plant response rating (soybean; [7]) | Soybean plant response rating (soybean; [8]) | Plant response rating, S. Flatsedge (0 to 10 scale, 0 is no effect, 10 is complete control) (smallflower flatsedge; [9]) | S. Flatsedge plant response rating (0 to 10 scale, 0 is no effect, 10 is complete control) (smallflower flatsedge; [10]) | S. Flatsedge plant response rating (smallflower flatsedge; [11]) | S. Flatsedge plant response rating (smallflower flatsedge; [12]) | Redroot pigweed plant response rating (pigweed; [1]) | Redroot pigweed plant response rating (pigweed; [2]) | Plant response rating, Redroot pigweed (pigweed; [3]) | Plant response rating, Redroot pigweed (pigweed; [4]) | Redroot pigweed plant response rating (pigweed; [5]) | Redroot pigweed plant response rating (pigweed; [6]) | Redroot pigweed plant response rating (pigweed; [7]) | Redroot pigweed plant response rating (pigweed; [8]) | Giant foxtail plant response rating (giant foxtail; [1]) | Giant foxtail plant response rating (giant foxtail; [2]) | Plant response rating, Giant foxtail (giant foxtail; [3]) | Plant response rating, Giant foxtail (giant foxtail; [4]) | Giant foxtail plant response rating (giant foxtail; [5]) | Giant foxtail plant response rating (giant foxtail; [6]) | Giant foxtail plant response rating (giant foxtail; [7]) | Giant foxtail plant response rating (giant foxtail; [8]) | Wild oats plant response rating (wild oat; [1]) | Wild oats plant response rating (wild oat; [2]) | Plant response rating, Wild oats (wild oat; [3]) | Plant response rating, Wild oats (wild oat; [4]) | Wild oats plant response rating (wild oat; [5]) | Wild oats plant response rating (wild oat; [6]) | Wild oats plant response rating (wild oat; [7]) | Wild oats plant response rating (wild oat; [8]) | Sugarbeets plant response rating (sugar beet; [1]) | Sugarbeets plant response rating (sugar beet; [2]) | Plant response rating, Sugarbeets (sugar beet; [3]) | Plant response rating, Sugarbeets (sugar beet; [4]) | Sugarbeets plant response rating (sugar beet; [5]) | Sugarbeets plant response rating (sugar beet; [6]) | Sugarbeets plant response rating (sugar beet; [7]) | Sugarbeets plant response rating (sugar beet; [8])
